In patent publication US20250213512A1, “TRANSDERMAL ANALGESIC FORMULATION” (MEAT & LIVESTOCK AUSTRALIA LTD, priority 2017, published 2025):
Several values for one entry are separate records, joined by “and”; a condition that tells them apart may be missing. Equal entries are not always repeated. Each block holds one molecule with its values, some of them ahead of it.

Legend:
[1] = Optimising the candidate formulations: excipient effects on ketoprofen movement through cattle skin in vitro
[2] = treated vs untreated cattle
Experimental: Blood samples were analysed for cortisol and biomarkers once the study was completed.
A preliminary analysis of the proteins identified was undertaken using Principal Component Analysis (PCA) within the MarkerView software package (FIG. 21). This analysis looked at a comparison of groups for all time points (FIG. 21a), a comparison of dehorning vs. sham (FIG. 21b) and a comparison of treatment vs. placebo (FIG. 21c).

[3] = Clinical study (disbudding): behaviour ethogram, mixed effect Poisson / negative binomial models; settings: dehorned calves
Experimental: Calf behaviour was monitored before and after dehoming in suitable time periods. The day before dehoming, the behaviour of all 36 calves were monitored for two hours to record the baseline variation, which was taken as 0 hour observation. Next day after dehoming, behaviour was recorded at 2-4 hour, 4-8 hour, 8-12 hour, 24 hour and 48 hours. There were 12 behaviour parameters recorded, as follows: Head shaking, Ear flicking, Tail wagging. Head rubbing, lying, ruminating, neck extending, grooming, walking, vocalising, feeding and drinking.
The method used to identify those variables was Confirmatory Factor Analysis (CFA) within Structural Equation Modelling Framework (SEM).
Separate models were used for each of the observed animal behavioural traits (FIG. 19). A mixed effect Poisson model with an animal fitted as random intercepts and time as random slope, and unstructured error term for the residuals. Behaviours trait at baseline (time 0) was centred and added to the fixed effect part of the model (essentially turning the model into a random slope model too). […] Overdispersed models (also those with excess zeros) were refitted using a negative binomial model.
Experimental time was fitted as a categorical variable to derive estimated at each time point, time 2 hr was used as the reference category. Treatment was also fitted as categorical variable, placebo as reference category. […]

[4] = Screening of NSAID and vehicle combinations: penetration through cattle skin in vitro (Table 13)
Experimental: Hair was removed using an electric clipper and the subcutaneous fat and musculature carefully trimmed away before the skin was cut into circular sections (approximately 2 cm diameter) using a metal wad punch, and placed in airtight ziplock bags, stored at −20° C. within 5 hr of slaughter.
The skin samples were defrosted immediately prior to use and mounted on Franz diffusion cells. […] A glass cover slip was applied to each donor chamber to prevent evaporation of the donor solution. Samples (200 μL) were collected at regular intervals from the receptor chambers via the sampling port and immediately replenished with equal volumes of fresh receptor solution. At the completion of each study, the diffusions cells were dismantled and the skin discs were rinsed and stored.

[5] = Solubility / precipitation of NSAIDs in the vehicles tested; settings: vehicles screened
[6] = 10% Tolfenamic acid, vehicle KET67 (Eucalyptus oil, 70% 1,8-cineole), sample time 4 hrs
[7] = 10% Tolfenamic acid, vehicle KET67 (Eucalyptus oil, 70% 1,8-cineole), sample time 6 hrs
[8] = 10% Tolfenamic acid, vehicle KET67 (Eucalyptus oil, 70% 1,8-cineole), sample time 8 hrs
[9] = 10% Tolfenamic acid, vehicle KET68 (propylene glycol, 100% PPG), sample time 4 hrs
[10] = Tolfenamic acid 10% in vehicle KET51: Ethanol 70% EthOH, Propylene glycol 30% PPG, terpene None, 0.1M citrate, sample time 6 hrs
[11] = Tolfenamic acid 10% in vehicle KET51: Ethanol 70% EthOH, Propylene glycol 30% PPG, terpene None, 0.1M citrate, sample time 8 hrs
[12] = Tolfenamic acid 10% in vehicle KET52: Ethanol 70% EthOH, Propylene glycol 30% PPG, Menthol 50 mg/mL, 0.1M citrate, sample time 0.5 hrs
[13] = Tolfenamic acid 10% in vehicle KET52: Ethanol 70% EthOH, Propylene glycol 30% PPG, Menthol 50 mg/mL, 0.1M citrate, sample time 2 hrs
[14] = Tolfenamic acid 10% in vehicle KET52: Ethanol 70% EthOH, Propylene glycol 30% PPG, Menthol 50 mg/mL, 0.1M citrate, sample time 4 hrs
[15] = Tolfenamic acid 10% in vehicle KET52: Ethanol 70% EthOH, Propylene glycol 30% PPG, Menthol 50 mg/mL, 0.1M citrate, sample time 6 hrs
[16] = Tolfenamic acid 10% in vehicle KET52: Ethanol 70% EthOH, Propylene glycol 30% PPG, Menthol 50 mg/mL, 0.1M citrate, sample time 8 hrs
[17] = Tolfenamic acid 50%, vehicle KET39: Ethanol 50% EthOH, no co-solvent, Menthol 50 mg/mL, sample time 0.5 hrs, replicates 1-3
[18] = Tolfenamic acid 50%, vehicle KET39: Ethanol 50% EthOH, no co-solvent, Menthol 50 mg/mL, sample time 2 hrs, replicates 1-3
[19] = Tolfenamic acid 50%, vehicle KET39: Ethanol 50% EthOH, no co-solvent, Menthol 50 mg/mL, sample time 4 hrs, replicates 1-3
[20] = Vehicle KET52: 70% EthOH, 30% PPG (propylene glycol), Menthol 50 mg/mL, 0.1M citrate, drug conc 10%, sample time 0.5 hrs
[21] = Vehicle KET52: 70% EthOH, 30% PPG (propylene glycol), Menthol 50 mg/mL, 0.1M citrate, drug conc 10%, sample time 8 hrs
[22] = Vehicle KET53: 70% EthOH, 30% OA (oleyl alcohol), no terpene, 0.1M citrate, drug conc 10%, sample time 0.5 hrs
[23] = Vehicle KET53: 70% EthOH, 30% OA (oleyl alcohol), no terpene, 0.1M citrate, drug conc 10%, sample time 8 hrs
[24] = Vehicle KET54: 100% SRArl (Superfine Arlasolve), 0.1M citrate, drug conc 10%, sample time 6 hrs

SMILES: CCO [Ethanol, ethanol]
effect of excipient on ketoprofen/NSAID penetration through cattle skin [1]: significantly enhanced penetration compared to other alcohols

SMILES: CCCCCCCCCCCCCC(=O)OC(C)C [IPM, isopropyl myristate]
effect of excipient on ketoprofen/NSAID penetration through cattle skin [1]: proving the more effective

SMILES: CC(C)O [isopropanol]
effect of excipient on ketoprofen/NSAID penetration through cattle skin [1]: did not perform as well as ethanol

SMILES: CC(C(=O)O)c1cccc(C(=O)c2ccccc2)c1 (centres unmarked) [ketoprofen]
effect on key biomarkers of pain and inflammation [2]: significantly affected key biomarkers of pain and inflammation
head shaking compared with the placebo group [3]: significantly different from the placebo group

analysis conc ([4]; 10% Tolfenamic acid, vehicle KET66 (50% Ethanol, Eucalyptus oil 21% 1,8-cineole, 0.1M citrate), sample time 0.5 hrs): 0.004
analysis conc ([4]; 10% Tolfenamic acid, vehicle KET67 (Eucalyptus oil, 70% 1,8-cineole), sample time 0.5 hrs): 0.005 and 0.003
Concentration [4, 6]: 0.03 µg/mL and 0.015 µg/mL
analysis conc [4, 6]: 0.01 and 0.005
analysis conc [4, 7]: 0.006 and 0.005 and 0.008
analysis conc [4, 8]: 0.006 and 0.005 and 0.004
analysis conc ([4]; 10% Tolfenamic acid, vehicle KET68 (propylene glycol, 100% PPG), sample time 0.5 hrs): 0.002
Concentration [4, 9]: 0.021 µg/mL and 0.012 µg/mL
analysis conc [4, 9]: 0.007 and 0.004
analysis conc ([4]; 10% Tolfenamic acid, vehicle KET68 (propylene glycol, 100% PPG), sample time 6 hrs): 0.002
analysis conc ([4]; Tolfenamic acid 10% in vehicle KET51: Ethanol 70% EthOH, Propylene glycol 30% PPG, terpene None, 0.1M citrate, sample time 2 hrs): 0.011 and 0.01
analysis conc ([4]; Tolfenamic acid 10% in vehicle KET51: Ethanol 70% EthOH, Propylene glycol 30% PPG, terpene None, 0.1M citrate, sample time 4 hrs): 0.004 and 0.003
Concentration [4, 10]: 0.012 µg/mL and 0.015 µg/mL
analysis conc [4, 10]: 0.004 and 0.005
analysis conc [4, 11]: 0.006 and 0.005 and 0.004
Concentration [4, 12]: 0.009 µg/mL
analysis conc [4, 12]: 0.003
Concentration [4, 13]: 0.012 µg/mL and 0.006 µg/mL
analysis conc [4, 13]: 0.004 and 0.002
Concentration [4, 14]: 0.009 µg/mL
analysis conc [4, 14]: 0.003
Concentration [4, 15]: 0.006 µg/mL
analysis conc [4, 15]: 0.002
Concentration [4, 16]: 0.012 µg/mL
analysis conc [4, 16]: 0.004
Concentration ([4]; Tolfenamic acid 50%, vehicle KET34: Ethanol 70% EthOH, no co-solvent, Menthol 50 mg/mL, sample time 0.5 hrs, replicates 1-3): 0 µg/mL
Concentration ([4]; Tolfenamic acid 50%, vehicle KET34: Ethanol 70% EthOH, no co-solvent, Menthol 50 mg/mL, sample time 2 hrs, replicates 1-3): 0 µg/mL
Concentration ([4]; Tolfenamic acid 50%, vehicle KET34: Ethanol 70% EthOH, no co-solvent, Menthol 50 mg/mL, sample time 4 hrs, replicates 1-3): 0 µg/mL
Concentration ([4]; Tolfenamic acid 50%, vehicle KET34: Ethanol 70% EthOH, no co-solvent, Menthol 50 mg/mL, sample time 6 hrs, replicates 1-3): 0 µg/mL
Concentration ([4]; Tolfenamic acid 50%, vehicle KET34: Ethanol 70% EthOH, no co-solvent, Menthol 50 mg/mL, sample time 8 hrs, replicates 1-3): 0 µg/mL
Concentration [4, 17]: 0 μg/mL (2×) and 0.018 μg/mL
analysis conc [4, 17]: 0.006
Concentration [4, 18]: 0 μg/mL (2×) and 0.027 μg/mL
analysis conc [4, 18]: 0.009
Concentration [4, 19]: 0.012 μg/mL and 0 μg/mL (2×)
analysis conc [4, 19]: 0.004
Concentration ([4]; Tolfenamic acid 50%, vehicle KET39: Ethanol 50% EthOH, no co-solvent, Menthol 50 mg/mL, sample time 6 hrs, replicates 1-3): 0 µg/mL
Concentration ([4]; Tolfenamic acid 50%, vehicle KET39: Ethanol 50% EthOH, no co-solvent, Menthol 50 mg/mL, sample time 8 hrs, replicates 1-3): 0 µg/mL
Concentration [4, 20]: 0.006 µg/mL
analysis conc [4, 20]: 0.002
Concentration ([4]; Vehicle KET52: 70% EthOH, 30% PPG (propylene glycol), Menthol 50 mg/mL, 0.1M citrate, drug conc 10%, sample time 2 hrs): 0 µg/mL
analysis conc ([4]; Vehicle KET52: 70% EthOH, 30% PPG (propylene glycol), Menthol 50 mg/mL, 0.1M citrate, drug conc 10%, sample time 4 hrs): 0.004
analysis conc ([4]; Vehicle KET52: 70% EthOH, 30% PPG (propylene glycol), Menthol 50 mg/mL, 0.1M citrate, drug conc 10%, sample time 6 hrs): 0.003
Concentration [4, 21]: 0.021 µg/mL and 0.012 µg/mL
analysis conc [4, 21]: 0.007 and 0.004
Concentration [4, 22]: 0.006 µg/mL
analysis conc [4, 22]: 0.002
analysis conc ([4]; Vehicle KET53: 70% EthOH, 30% OA (oleyl alcohol), no terpene, 0.1M citrate, drug conc 10%, sample time 2 hrs): 0.005
analysis conc [4, 23]: 0.047 and 0.08 and 0.04
analysis conc ([4]; Vehicle KET54: 100% SRArl (Superfine Arlasolve), 0.1M citrate, drug conc 10%, sample time 0.5 hrs): 0.002
Concentration ([4]; Vehicle KET54: 100% SRArl (Superfine Arlasolve), 0.1M citrate, drug conc 10%, sample time 2 hrs): 0 µg/mL
Concentration ([4]; Vehicle KET54: 100% SRArl (Superfine Arlasolve), 0.1M citrate, drug conc 10%, sample time 4 hrs): 0 µg/mL
Concentration [4, 24]: 0.009 µg/mL and 0.006 µg/mL
analysis conc [4, 24]: 0.003 and 0.002 and 0.004
SMILES: Cc1c(Cl)cccc1Nc1ccccc1C(=O)O [tolfenamic acid]
Concentration [4, 7]: 0.018 µg/mL and 0.015 µg/mL and 0.024 µg/mL
Concentration [4, 8]: 0.018 µg/mL and 0.015 µg/mL and 0.012 µg/mL
Concentration [4, 11]: 0.018 µg/mL and 0.015 µg/mL and 0.012 µg/mL
Concentration [4, 23]: 0.141 µg/mL and 0.24 µg/mL and 0.12 µg/mL
solubility in vehicles [5]: not particularly soluble in most of the vehicles tested
solubility in vehicles ([5]; listed as Tolfenamic acid): poorly soluble in almost every vehicle tested
